Measurements taken from patent US20130345312A1, “TREATMENT OF MITOCHONDRIAL DISEASES WITH NAPHTHOQUINONES” (priority 2010, published 2013).
pEC50: −log10 of the molar value.

Legend:
Assay type in all cases: cell-based
[1] = system: FRDA fibroblasts (Coriell GM04078); test: Rescue of BSO-stressed human dermal fibroblasts from Friedreich's ataxia patients (Calcein AM viability); details: FRDA fibroblasts stressed with 1 mM BSO, 48 h, Calcein AM fluorescence, read-out: protection against FRDA, EC50
Procedure: Test samples and solvent controls were tested for their ability to rescue FRDA fibroblasts stressed by addition of L-buthionine-(S,R)-sulfoximine (BSO), as described in Jauslin et al., Hum. Mol. Genet. 11(24):3055 (2002), Jauslin et al., FASEB J. 17:1972-4 (2003), and International Patent Application WO 2004/003565. […] This specific BSO-mediated cell death can be prevented by administration of antioxidants or molecules involved in the antioxidant pathway, such as alpha-tocopherol, selenium, or small molecule glutathione peroxidase mimetics. However, antioxidants differ in their potency, i.e. the concentration at which they are able to rescue BSO-stressed FRDA fibroblasts. MEM (a medium enriched in amino acids and vitamins, catalog no. 1-31F24-I) and Medium 199 (M199, catalog no. 1-21F22-I) with Earle's Balanced Salts, without phenol red, were purchased from Bioconcept. Fetal Calf Serum was obtained from PAA Laboratories. Basic fibroblast growth factor and epidermal growth factor were purchased from PeproTech. Penicillin-streptomycin-glutamine mix, L-buthionine (S,R)-sulfoximine, and insulin from bovine pancreas were purchased from Sigma. Calcein AM was purchased from Molecular Probes. Cell culture medium was made by combining 125 ml M199 EBS, 50 ml Fetal Calf Serum, 100 U/ml penicillin, 100 μg/ml streptomycin, 2 mM glutamine, 10 μg/ml insulin, 10 ng/ml EGF, and 10 ng/ml bFGF; MEM EBS was added to make the volume up to 500 ml. A 10 mM BSO solution was prepared by dissolving 444 mg BSO in 200 ml of medium with subsequent filter-sterilization. During the course of the experiments, this solution was stored at +4° C. The cells were obtained from the Coriell Cell Repositories (Camden, N.J.; repository number GM04078) and grown in 10 cm tissue culture plates. Every third day, they were split at a 1:3 ratio. The test samples were supplied in 1.5 ml glass vials. The compounds were diluted with DMSO, ethanol or PBS to result in a 5 mM stock solution. Once dissolved, they were stored at −20° C. Test samples were screened according to the following protocol: A culture with FRDA fibroblasts was started from a 1 ml vial with approximately 500,000 cells stored in liquid nitrogen. Cells were propagated in 10 cm cell culture dishes by splitting every third day in a ratio of 1:3 until nine plates were available. Once confluent, fibroblasts were harvested. For 54 micro titer plates (96 well-MTP) a total of 14.3 million cells (passage eight) were re-suspended in 480 ml medium, corresponding to 100 μL medium with 3,000 cells/well. The remaining cells were distributed in 10 cm cell culture plates (500,000 cells/plate) for propagation. The plates were incubated overnight at 37° C. in a atmosphere with 95% humidity and 5% CO2 to allow attachment of the cells to the culture plate. MTP medium (243 μL) was added to a well of the microtiter plate. The test compounds were unfrozen and 7.5 μL of a 5 mM stock solution was dissolved in the well containing 243 μL medium, resulting in a 150 μM master solution. Serial dilutions from the master solution were made. The period between the single dilution steps was kept as short as possible (generally less than 1 second). Plates were kept overnight in the cell culture incubator. The next day, 10 μL of a 10 mM BSO solution were added to the wells, resulting in a 1 mM final BSO concentration. Forty-eight hours later, three plates were examined under a phase-contrast microscope to verify that the cells in the 0% control (wells E1-H1) were clearly dead. The medium from all plates was discarded, and the remaining liquid was removed by gently tapping the plate inversed onto a paper towel. 100 μl of PBS containing 1.2 μM Calcein AM were then added to each well. The plates were incubated for 50-70 minutes at room temperature. After that time the PBS was discarded, the plate gently tapped on a paper towel and fluorescence (excitation/emission wavelengths of 485 nm and 525 nm, respectively) was read on a Gemini fluorescence reader. […]

[2] = system: Huntington's cells (Coriell GM 04281); test: Rescue of fibroblasts from Huntington's patients from oxidative stress (screen as in Example A); details: Fibroblast, human dermal fibroblasts from Huntington's patients, read-out: protection against Huntington's, EC50
Procedure: Compounds of the invention were tested using the screen as described in Example A, but substituting FRDA cells with Huntington's cells obtained from the Coriell Cell Repositories (Camden, N.J.; repository number GM 04281). The compounds were tested for their ability to rescue human dermal fibroblasts from Huntington's patients from oxidative stress.

[3] = system: Leber's Hereditary Optic Neuropathy (LHON) cells (Coriell GM03858); test: Rescue of fibroblasts from Leber's Hereditary Optic Neuropathy patients from oxidative stress (screen as in Example A); details: Fibroblast, human dermal fibroblasts from LHON patients, read-out: protection against LHON, EC50
Procedure: Compounds of the invention were screened as described in Example A, but substituting FRDA cells with Leber's Hereditary Optic Neuropathy (LHON) cells obtained from the Coriell Cell Repositories (Camden, N.J.; repository number GM03858). The compounds were tested for their ability to rescue human dermal fibroblasts from LHON patients from oxidative stress.

[4] = system: cells obtained from CoQ10 deficient patients harboring a CoQ2 mutation; test: Rescue of fibroblasts from CoQ10 deficient patients from oxidative stress (screen similar to Example A); details: Fibroblast, human dermal fibroblasts from CoQ10 deficient patients (CoQ2 mutation), read-out: protection against CoQ10 deficiency, EC50
Procedure: Compounds of the invention were tested using a screen similar to the one described in Example A, but substituting FRDA cells with cells obtained from CoQ10 deficient patients harboring a CoQ2 mutation. The compounds were tested for their ability to rescue human dermal fibroblasts from CoQ10 deficient patients from oxidative stress.

[5] = system: Parkinson's disease (PD) cells (Coriell AG20439); test: Rescue of fibroblasts from Parkinson's disease patients from oxidative stress (screen as in Example A); details: Fibroblast, human dermal fibroblasts from Parkinson's disease patients, read-out: protection against PD, EC50
Procedure: Compounds of the invention were screened as described in Example A, but substituting FRDA cells with Parkinson's disease (PD) cells obtained from the Coriell Cell Repositories (Camden, N.J.; repository number AG20439). The compounds were tested for their ability to rescue human dermal fibroblasts from Parkinson's disease patients from oxidative stress.

Compound	pEC50 [1]	pEC50 [2]	pEC50 [3]	pEC50 [4]	pEC50 [5]
COC1=C(OC)C(=O)c2ccccc2C1=O [2,3-dimethoxynaphthalene-1,4-dione]	> 7.00	> 6.82	> 6.82	> 7.00	–
CC1=C(C)C(=O)c2ccccc2C1=O [2,3-dimethylnaphthalene-1,4-dione]	> 7.00	> 6.82	> 6.82	> 7.00	> 6.70
CCCCC1=C(C)C(=O)c2ccccc2C1=O [2-butyl-3-methylnaphthalene-1,4-dione]	> 7.00	> 6.82	> 6.82	> 7.00	> 6.70
CCCCCCC1=C(C)C(=O)c2ccccc2C1=O [2-hexyl-3-methylnaphthalene-1,4-dione]	> 7.00	> 6.82	> 6.82	> 7.00	> 6.70
COC1=CC(=O)c2ccccc2C1=O [2-methoxynaphthalene-1,4-dione]	> 7.00	> 6.82	> 6.82	> 7.00	–
O=C1C=CC(=O)c2ccccc21 [naphthalene-1,4-dione]	> 7.00	> 6.82	> 6.82	–	> 6.70
